Source: patent publication EP0238178B1, “Novel derivatives of erythromycylamine” (ELI LILLY AND COMPANY, priority 1986, dated 1987)
Converted amounts (≈) assume the structure as drawn. Read-outs that look alike come from different tables or passages of the source.

Legend:
[1] = tested on: Staphylococcus aureus S13E; assay: MIC, standard agar-dilution assay; assay type: cell-based
[2] = tested on: Streptococcus sp. group D X66; assay: MIC, standard agar-dilution assay; assay type: cell-based; details: Streptococcus sp. group D X66
[3] = tested on: Streptococcus pneumoniae Park I; assay: MIC, standard agar-dilution assay; assay type: cell-based
[4] = tested on: Staphylococcus aureus X1.1; assay: MIC, standard agar-dilution assay; assay type: cell-based
Escherichia coli EC14 = assay: MIC, standard agar-dilution assay; assay type: cell-based
Streptococcus pyogenes = assay: Experimental bacterial infection in mice, ED50; assay type: in vivo; details: two doses, dose protecting 50% of animals; for ED50: Streptococcus pyogenes
Procedure: (§1) The new derivatives of this invention have also shown in vivo antimicrobial activity against experimental bacterial infections. When two doses of test compound were administered to mice in experimental infections, the activity observed was measured as an EDso value [effective dose in mg/kg to protect 50% of the test animals: see Warren Wick, et al., J. Bacteriol. 81, 233-235 (1961)].

Staphylococcus aureus = assay: Experimental bacterial infection in mice, ED50; assay type: in vivo; details: two doses, dose protecting 50% of animals; for ED50: Staphylococcus aureus
Procedure: as §1

Streptococcus pneumoniae = assay: Experimental bacterial infection in mice, ED50; assay type: in vivo; details: two doses, dose protecting 50% of animals; for ED50: Streptococcus pneumoniae
Procedure: as §1

[5] = tested on: Klebsiella pneumoniae X68; assay: MIC, standard agar-dilution assay; assay type: cell-based; details: read-out: MIC
[6] = tested on: Staphylococcus epidermidis 222; assay: MIC, standard agar-dilution assay; assay type: cell-based
[7] = tested on: Streptococcus pyogenes C203; assay: MIC, standard agar-dilution assay; assay type: cell-based
[8] = tested on: Streptococcus sp. group D 2041; assay: MIC, standard agar-dilution assay; assay type: cell-based
[9] = tested on: Haemophilus influenzae C.L.; assay: MIC, standard agar-dilution assay; assay type: cell-based; details: Ampicillin-sensitive strain
[10] = tested on: Haemophilus influenzae 76; assay: MIC, standard agar-dilution assay; assay type: cell-based; details: Haemophilus influenzae 76, Ampicillin-resistant strain
[11] = sc, subcutaneous, read-out: Subcutaneous ED50

Molecule	MIC [1]	MIC ([2]; read-out: MIC)	MIC ([3]; read-out: MIC)	MIC ([4]; read-out: MIC)	MIC (Escherichia coli EC14; read-out: MIC)	ED50 (Streptococcus pyogenes; po, read-out: Oral ED50)	ED50 (Staphylococcus aureus; po, read-out: Oral ED50)	ED50 (Streptococcus pneumoniae; po, read-out: Oral ED50)	MIC ([6]; read-out: MIC)	MIC ([7]; read-out: MIC)	MIC ([8]; read-out: MIC)	MIC ([9]; read-out: MIC)	other results
CC[C@H]1OC(=O)[C@H](C)[C@@H](O[C@H]2C[C@@](C)(OC)[C@@H](O)[C@H](C)O2)[C@H](C)[C@@H](O[C@@H]2O[C@H](C)C[C@H](N(C)C)[C@H]2O)[C@](C)(O)C[C@@H](C)[C@H](NCCCCCO)[C@H](C)[C@@H](O)[C@]1(C)O [Compound 21, 9-Deoxo-9-[(5-hydroxypentyl)amino]erythromycin]	0.25 µg/mL (≈ 0.304 µM)	0.25 µg/mL (≈ 0.304 µM)	< 0.008 µg/mL	0.5 µg/mL (≈ 0.609 µM)	32 µg/mL (≈ 39 µM)	42.6 mg/kg	> 50 mg/kg	> 50 mg/kg	0.5 µg/mL (≈ 0.609 µM)	< 0.008 µg/mL	4 µg/mL (≈ 4.87 µM)	2 µg/mL (≈ 2.44 µM)	MIC [5]: 128 µg/mL (≈ 156 µM)
CC[C@H]1OC(=O)[C@H](C)[C@@H](O[C@H]2C[C@@](C)(OC)[C@@H](O)[C@H](C)O2)[C@H](C)[C@@H](O[C@@H]2O[C@H](C)C[C@H](N(C)C)[C@H]2O)[C@](C)(O)C[C@@H](C)[C@H](NCCC2=C(C)CCCC2(C)C)[C@H](C)[C@@H](O)[C@]1(C)O [Compound 30, 9-Deoxo-9-[[2-(2,6,6-trimethyl-1-cyclohexen-1-yl)ethyl]amino]erythromycin]						> 50 mg/kg	> 50 mg/kg	> 50 mg/kg					
Endo- and Exo-9-Deoxo-9-[(bicyclo[2.2.1]hept-2-en-5-yl-methyl)amino]erythromycin [Compound 19]	2 µg/mL												MIC [2]: 1 µg/mL; MIC [3]: 0.015 µg/mL; MIC [4]: 2 µg/mL; MIC (Escherichia coli EC14): 64 µg/mL; Oral ED50 (Streptococcus pyogenes; oral): 16.6 mg/kg; Oral ED50 (Staphylococcus aureus; oral): >50 mg/kg; Oral ED50 (Streptococcus pneumoniae; oral): 25.0 mg/kg; MIC [6]: 1 µg/mL; MIC [7]: 0.25 µg/mL; MIC [8]: 8 µg/mL; MIC [10]: 8 µg/mL; MIC [9]: 8 µg/mL
CC[C@H]1OC(=O)[C@H](C)[C@@H](O[C@H]2C[C@@](C)(OC)[C@@H](O)[C@H](C)O2)[C@H](C)[C@@H](O[C@@H]2O[C@H](C)C[C@H](N(C)C)[C@H]2O)[C@](C)(O)C[C@@H](C)[C@H](NCC2CC=CCC2)[C@H](C)[C@@H](O)[C@]1(C)O (stereo partly shown) [Compound 15, 9-Deoxo-9-[(1-cyclohex-4-enylmethyl)amino]erythromycin]	1 µg/mL (≈ 1.21 µM)	0.25 µg/mL (≈ 0.302 µM)	< 0.008 µg/mL	1 µg/mL (≈ 1.21 µM)	64 µg/mL (≈ 77.2 µM)	14.9 mg/kg	20 mg/kg	8.7 mg/kg	0.25 µg/mL (≈ 0.302 µM)	0.06 µg/mL (≈ 0.0724 µM)	8 µg/mL (≈ 9.65 µM)	4 µg/mL (≈ 4.82 µM)	MIC ([10]; read-out: MIC): 2 µg/mL (≈ 2.41 µM)
CCOC(=O)C1CC1CN[C@@H]1[C@H](C)[C@@H](O)[C@](C)(O)[C@@H](CC)OC(=O)[C@H](C)[C@@H](O[C@H]2C[C@@](C)(OC)[C@@H](O)[C@H](C)O2)[C@H](C)[C@@H](O[C@@H]2O[C@H](C)C[C@H](N(C)C)[C@H]2O)[C@](C)(O)C[C@H]1C (stereo partly shown) [Compound 27, 9-Deoxo-9-[[[2-(ethoxycarbonyl)cyclopropyl]methyl]amino]erythromycin]						27.1 mg/kg	50 mg/kg	30.4 mg/kg					
CCCCCCN[C@@H]1[C@H](C)[C@@H](O)[C@](C)(O)[C@@H](CC)OC(=O)[C@H](C)[C@@H](O[C@H]2C[C@@](C)(OC)[C@@H](O)[C@H](C)O2)[C@H](C)[C@@H](O[C@@H]2O[C@H](C)C[C@H](N(C)C)[C@H]2O)[C@](C)(O)C[C@H]1C [Compound 6, 9-Deoxo-9-(n-hexylamino)erythromycin]	1 µg/mL (≈ 1.22 µM)	0.125 µg/mL (≈ 0.153 µM)	< 0.008 µg/mL	1 µg/mL (≈ 1.22 µM)	64 µg/mL (≈ 78.1 µM)	17.7 mg/kg	38.6 mg/kg	14.3 mg/kg	0.25 µg/mL (≈ 0.305 µM)	0.125 µg/mL (≈ 0.153 µM)	4 µg/mL (≈ 4.88 µM)	4 µg/mL (≈ 4.88 µM)	MIC ([10]; read-out: MIC): 4 µg/mL (≈ 4.88 µM)
CC[C@H]1OC(=O)[C@H](C)[C@@H](O[C@H]2C[C@@](C)(OC)[C@@H](O)[C@H](C)O2)[C@H](C)[C@@H](O[C@@H]2O[C@H](C)C[C@H](N(C)C)[C@H]2O)[C@](C)(O)C[C@@H](C)[C@H](NCCOC)[C@H](C)[C@@H](O)[C@]1(C)O [Compound 31, 9-Deoxo-9-[(2-Methoxyethyl)amino]erythromycin]						16.3 mg/kg	35.2 mg/kg	18.7 mg/kg					ED50 (Streptococcus pyogenes; [11]): 2.1 mg/kg; ED50 (Staphylococcus aureus; [11]): 2.5 mg/kg; ED50 (Streptococcus pneumoniae; [11]): 3.3 mg/kg
